Counter-ions that a name gives are not always drawn. Like-named read-outs stand apart in the source and are kept apart here.
Tests used:
[1] = system: human multiple myeloma cells (MM.1S); experiment: Anti-proliferation assay (ATPLite, 72 h); format: cell-based; set-up: key to synergy score / synergy (score), PDEi × HE-NECA: S = lnfX·lnfY·ΣIdata(Idata−ILoewe), volume over Loewe additivity; settings: for inhibition at 1.17 µM: ADAC 1.17 μM; for inhibition at 3.51 µM: ADAC 3.51 μM; for inhibition at 10.5 µM: ADAC 10.5 μM; for inhibition at 31.6 µM: ADAC 31.6 μM
In short: (§1)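 Cell viability was read by ATPLite luminescence after compound exposure. ANBL6 medium carried 10 ng/ml IL-6. Compounds were serially diluted 2- or 3-fold over 12 concentrations for single-agent curves, and percent inhibition was calculated relative to the mean of untreated wells.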

[2] = system: RPMI-8226, H929, MM.1S and MM.1R MM cell lines; experiment: Anti-proliferation assay, statements across MM cell lines; format: cell-based, human; settings: for activity and synergy of adenosine receptor agonists: RPMI-8226, H929, MM.1S and MM.1R MM cell lines
Method: The MM.1S, MM.1R, H929, MOLP-8, EJM, INA-6, ANBL6, KSM-12-PE, OPM2, and RPMI-8226 multiple myeloma cell lines, as well as the Burkitt's lymphoma cell line GA-10 and the non-Hodgkin's lymphoma cell lines Farage, SU-DHL6, and Karpas 422 were cultured at 37° C. and 5% CO2 in RPMI-1640 media supplemented with 10% FBS. ANBL6 and INA-6 culture media was also supplemented with 10 ng/ml IL-6. The OCI-ly10 cell line was cultured using RPMI-1640 media supplemented with 20% human serum. MM.1S, MM.1R, OCI-ly10, Karpas 422, and SU-DHL6 cells were provided by the Dana Farber Cancer Institute. H929, RPMI-8226, GA-10, and Farage cells were from ATCC (Cat #'s CCL-155, CRL-9068, CRL-2392 and CRL-2630 respectively). MOLP-8, EJM, KSM-12-PE, and OPM2 were from DSMZ. The ANBL6 and INA-6 cell lines were provided by the M. D. Anderson Cancer Research Center.
Compounds were prepared in DMSO at 1000× the highest desired concentration. Master plates were generated consisting of serially diluted compounds in 2- or 3-fold dilutions in 384-well format. For single agent dose response curves, the master plates consisted of 9 individual compounds at 12 concentrations in 2- or 3-fold dilutions. For combination matrices, master plates consisted of individual compounds at 6 or 9 concentrations at 2- or 3-fold dilutions.
Cells were added to 384-well plates 24 hours prior to compound addition such that each well contained 2000 cells in 35 μL of media. Master plates were diluted 100× (1 μL into 100 μL) into 384-well dilution plates containing only cell culture media. 4.5 μL from each dilution plate was added to each assay plate for a final dilution of 1000×. To obtain combination data, two master plates were diluted into the assay plates. Following compound addition, assay plates were kept at 37° C. and 5% CO2 for 72 hours. Thirty microliters of ATPLite (Perkin Elmer) at room temperature was then added to each well. Final amount of ATP was quantified within 30 minutes using ATPLite luminescent read-out on an Envision 2103 Multilabel Reader (Perkin Elmer). Measurements were taken at the top of the well using a luminescence aperture and a read time of 0.1 seconds per well.
The Loewe additivity model was used to quantify combination effects. Combinations were ranked initially by Additivity Excess Volume, which is defined as ADD Volume=ΣCX, CY (Idata−ILoewe). where ILoewe(CX, CY) is the inhibition that satisfies (CX/ECX)+(CY/ECY)=1, and ECX,Y are the effective concentrations at ILoewe for the single agent curves. A “Synergy Score” was also used, where the Synergy Score S=log fX log fY ΣIdata(Idata−ILoewe), summed over all non-single-agent concentration pairs, and where log fX,Y is the natural logarithm of the dilution factors used for each single agent. This effectively calculates a volume between the measured and Loewe additive response surfaces, weighted towards high inhibition and corrected for varying dilution factors. An uncertainty σS was calculated for each synergy score, based on the measured errors for the Idata values and standard error propagation.

[3] = system: H929 multiple myeloma cell line; experiment: Anti-proliferation assay (ATPLite, 72 h); format: cell-based, human; set-up: key: S = lnfX·lnfY·ΣIdata(Idata−ILoewe), volume over Loewe additivity
In short: as §1

[4] = system: RPMI-8226 multiple myeloma cell line; experiment: Anti-proliferation assay (ATPLite, 72 h); format: cell-based, human; set-up: key: S = lnfX·lnfY·ΣIdata(Idata−ILoewe), volume over Loewe additivity
In short: as §1

[5] = Homo sapiens, MM1.S, 10 ng/mL IL-6, Trequinsin conc. (μM), read-out: percent inhibition of ATP in MM.1S cells
[6] = Homo sapiens, MM1.S, no IL-6, Trequinsin conc. (μM), read-out: percent inhibition of ATP in MM.1S cells

NCCNC(=O)Cc1ccc(NC(=O)Cc2ccc(Nc3ncnc4c3ncn4[C@@H]3O[C@H](CO)[C@@H](O)[C@H]3O)cc2)cc1 [ADAC, N-(4-(2-((4-(2-((2-aminoethyl)amino)-2-oxoethyl)phenyl)amino)-2-oxoethyl)phenyl)-Adenosine]
inhibition at 1.17 µM [1, 5]: 79% | inhibition at 3.51 µM [1, 5]: 81% | inhibition at 10.5 µM [1, 5]: 85% | inhibition at 31.6 µM [1, 5]: 83% | inhibition at […] ([1]; Homo sapiens, MM1.S, 10 ng/mL IL-6, ADAC […], Trequinsin conc. (μM), read-out: percent inhibition of ATP in MM.1S cells): 61% | inhibition at 1.975 µM ([1]; Homo sapiens, MM1.S, ADAC 1.975 μM, Trequinsin Hydrochloride conc. (μM), read-out: Percent inhibition of ATP in MM.1S cells): 37% | inhibition at 3.95 µM ([1]; Homo sapiens, MM1.S, ADAC 3.95 μM, Trequinsin Hydrochloride conc. (μM), read-out: Percent inhibition of ATP in MM.1S cells): 49% | inhibition at 15.8 µM ([1]; Homo sapiens, MM1.S, ADAC 15.8 μM, Trequinsin Hydrochloride conc. (μM), read-out: Percent inhibition of ATP in MM.1S cells): 66% | inhibition at 31.6 µM ([1]; Homo sapiens, MM1.S, Trequinsin Hydrochloride conc. (μM), read-out: Percent inhibition of ATP in MM.1S cells): 60% | inhibition at 1.17 µM [1, 6]: 49% | inhibition at 3.51 µM [1, 6]: 57% | inhibition at 10.5 µM [1, 6]: 66% | inhibition at 31.6 µM [1, 6]: 60% | activity and synergy of adenosine receptor agonists [2]: active and synergistic

COc1cc2c(cc1OC)-c1cc(=Nc3c(C)cc(C)cc3C)n(C)c(=O)n1CC2 [Trequinsin hydrochloride, 2,3,6,7-tetrahydro-9,10-dimethoxy-3-methyl-2-((2,4,6-trimethylphenyl)imino)-4H-pyrimido(6,1-a)isoquinolin-4-one]
synergy (score), PDEi × HE-NECA ([3]; 6×6 cross of PDE inhibitor or PDE inhibitor mixture with HE-NECA, H929): 4.22 | synergy score ([3]; PDE inhibitor crossed with (S) ENBA, H929): 3.38 | synergy score ([3]; PDE inhibitor crossed with ADAC, H929): 3.04 | synergy score ([3]; PDE inhibitor crossed with Chloro-IB-MECA, H929): 2.77 | synergy score ([3]; PDE inhibitor crossed with HE-NECA, H929): 4.34 | synergy score ([3]; in combination with adenosine receptor agonist ADAC, H929): 3.044 | synergy score ([3]; in combination with adenosine receptor agonist CGS-21680, H929): 3.33 | synergy score ([3]; in combination with adenosine receptor agonist HE-NECA, H929): 3.141 | synergy score ([3]; in combination with adenosine receptor agonist regadenoson, H929): 1.99 | synergy score ([4]; in combination with adenosine receptor agonist ADAC, RPMI-8226): 0.9183 | synergy score ([4]; in combination with adenosine receptor agonist CGS-21680, RPMI 8226): 0.72 | synergy score ([4]; in combination with adenosine receptor agonist HE-NECA, RPMI-8226): 0.793 | synergy score ([4]; in combination with adenosine receptor agonist regadenoson, RPMI 8226): 0.4 | synergy (score), PDEi × HE-NECA ([1]; 6×6 cross of PDE inhibitor or PDE inhibitor mixture with HE-NECA, MM.1S): 5.7 | inhibition at 0.377 µM ([1]; Homo sapiens, MM1.S, 10 ng/mL IL-6, Trequinsin 0.377 μM, HE-NECA conc. (nM), read-out: percent inhibition of ATP in MM.1S cells): -1.2% | inhibition at 1.13 µM ([1]; Homo sapiens, MM1.S, 10 ng/mL IL-6, Trequinsin 1.13 μM, HE-NECA conc. (nM), read-out: percent inhibition of ATP in MM.1S cells): 5.1% | inhibition at 3.39 µM ([1]; Homo sapiens, MM1.S, 10 ng/mL IL-6, Trequinsin 3.39 μM, HE-NECA conc. (nM), read-out: percent inhibition of ATP in MM.1S cells): 8.9% | inhibition at 10.2 µM ([1]; Homo sapiens, MM1.S, 10 ng/mL IL-6, Trequinsin 10.2 μM, HE-NECA conc. (nM), read-out: percent inhibition of ATP in MM.1S cells): 26% | inhibition at 30.5 µM ([1]; Homo sapiens, MM1.S, 10 ng/mL IL-6, Trequinsin 30.5 μM, HE-NECA conc. (nM), read-out: percent inhibition of ATP in MM.1S cells): 95% | inhibition at 0.377 µM ([1]; Homo sapiens, MM1.S, 72 h, trequinsin 0.377 μM alone (HE-NECA 0), 72 h, read-out: Percent inhibition of ATP in MM.1S cells): 7.4% | inhibition at 1.13 µM ([1]; Homo sapiens, MM1.S, 72 h, trequinsin 1.13 μM alone (HE-NECA 0), 72 h, read-out: Percent inhibition of ATP in MM.1S cells): 0.96% | inhibition at 3.39 µM ([1]; Homo sapiens, MM1.S, 72 h, trequinsin 3.39 μM alone (HE-NECA 0), 72 h, read-out: Percent inhibition of ATP in MM.1S cells): 10% | inhibition at 10.17 µM ([1]; Homo sapiens, MM1.S, 72 h, trequinsin 10.17 μM alone (HE-NECA 0), 72 h, read-out: Percent inhibition of ATP in MM.1S cells): 26% | inhibition at 30.5 µM ([1]; Homo sapiens, MM1.S, 72 h, trequinsin 30.5 μM alone (HE-NECA 0), 72 h, read-out: Percent inhibition of ATP in MM.1S cells): 68% | synergy score ([1]; PDE inhibitor crossed with (S) ENBA, MM.1S): 4.56 | synergy score ([1]; PDE inhibitor crossed with ADAC, MM.1S): 6.62 | synergy score ([1]; PDE inhibitor crossed with Chloro-IB-MECA, MM.1S): 5.95 | synergy score ([1]; PDE inhibitor crossed with HE-NECA, MM.1S): 7.85 | synergy score ([1]; in combination with adenosine receptor agonist ADAC, MM.1S): 6.619 | synergy score ([1]; in combination with adenosine receptor agonist CGS-21680, MM.1S): 6.26 | synergy score ([1]; in combination with adenosine receptor agonist HE-NECA, MM.1S): 7.235 | synergy score ([1]; in combination with adenosine receptor agonist regadenoson, MM.1S): 1.85 | rank of synergy scores among PDE inhibitors ([2]; crossed with adenosine receptor agonists): highest synergy scores

CCCCC#Cc1nc(N)c2ncn([C@@H]3O[C@H](C(=O)NCC)[C@@H](O)[C@H]3O)c2n1 [HE-NECA, hexynyladenosine-5′-N-ethylcarboxamide]
percent inhibition of ATP in MM.1S cells ([1]; HE-NECA 0.0251 μM alone (trequinsin 0), 72 h): 78% | percent inhibition of ATP in MM.1S cells ([1]; HE-NECA 0.0752 μM alone (trequinsin 0), 72 h): 79% | percent inhibition of ATP in MM.1S cells ([1]; HE-NECA 0.226 μM alone (trequinsin 0), 72 h): 83% | percent inhibition of ATP in MM.1S cells ([1]; HE-NECA 0.677 μM alone (trequinsin 0), 72 h): 80% | percent inhibition of ATP in MM.1S cells ([1]; HE-NECA 2.03 μM alone (trequinsin 0), 72 h): 86% | activity and synergy of adenosine receptor agonists [2]: active and synergistic
